From ChEMBL document CHEMBL5463729, “Data for DCP probe BAY 1753011” (2023)

Legend:
[1] = target: Serine/threonine-protein kinase 26 (Homo sapiens) (UniProt Q9P289); assay: Inhibition of MST4(h) at 10.0 µM in the Eurofins Kinase panel; conditions: Compound concentration 10.0 uM
[2] = target: Mitogen-activated protein kinase 11 (Homo sapiens) (UniProt Q15759); assay: Inhibition of SAPK2b(h) at 10.0 µM in the Eurofins Kinase panel; conditions: Compound concentration 10.0 uM
[3] = target: Cyclin-dependent kinase-like 3 (Homo sapiens) (UniProt Q8IVW4); assay: Inhibition of CDKL3(h) at 10.0 µM in the Eurofins Kinase panel; conditions: Compound concentration 10.0 uM
[4] = target: 5-hydroxytryptamine receptor 2C (Homo sapiens) (UniProt P28335); conditions: Compound concentration 10.0 uM
[5] = target: Insulin receptor (Homo sapiens) (UniProt P06213); assay: Inhibition of IR(h) at 10.0 µM in the Eurofins Kinase panel; conditions: Compound concentration 10.0 uM
[6] = target: Activin receptor type-2A (Homo sapiens) (UniProt P27037); assay: Inhibition of ACTR2(h) at 10.0 µM in the Eurofins Kinase panel; conditions: Compound concentration 10.0 uM
[7] = species on record: Rattus norvegicus; conditions: Compound concentration 10.0 uM
[8] = target: Serine/threonine-protein kinase D1 (Homo sapiens) (UniProt Q15139); assay: Inhibition of PKCmu(h) at 10.0 µM in the Eurofins Kinase panel; conditions: Compound concentration 10.0 uM
[9] = target: Histamine H1 receptor (Homo sapiens) (UniProt P35367); conditions: Compound concentration 10.0 uM
[10] = target: MAP/microtubule affinity-regulating kinase 4 (Homo sapiens) (UniProt Q96L34); assay: Inhibition of MARK4(h) at 10.0 µM in the Eurofins Kinase panel; conditions: Compound concentration 10.0 uM
[11] = target: Serine/threonine-protein kinase 16 (Homo sapiens) (UniProt O75716); assay: Inhibition of STK16(h) at 10.0 µM in the Eurofins Kinase panel; conditions: Compound concentration 10.0 uM
[12] = target: ATR/ATRIP (Homo sapiens) (UniProt Q13535+Q8WXE1); assay: Inhibition of ATR/ATRIP(h) at 10.0 µM in the Eurofins Kinase panel; assay type: protein-complex assay; conditions: Compound concentration 10.0 uM
[13] = target: Histamine H1 receptor (Homo sapiens) (UniProt P35367); conditions: Compound concentration 10.0 uM; remark: listed apart in the source
[14] = target: Serine/threonine-protein kinase mTOR (Homo sapiens) (UniProt P42345); assay: Inhibition of mTOR(h) at 10.0 µM in the Eurofins Kinase panel; conditions: Compound concentration 10.0 uM
[15] = target: Calcium/calmodulin-dependent protein kinase type II subunit beta (Homo sapiens) (UniProt Q13554); assay: Inhibition of CaMKIIbeta(h) at 10.0 µM in the Eurofins Kinase panel; conditions: Compound concentration 10.0 uM
[16] = target: Maternal embryonic leucine zipper kinase (Homo sapiens) (UniProt Q14680); assay: Inhibition of MELK(h) at 10.0 µM in the Eurofins Kinase panel; conditions: Compound concentration 10.0 uM
[17] = target: Beta-3 adrenergic receptor (Homo sapiens) (UniProt P13945); conditions: Compound concentration 10.0 uM
[18] = target: Serine/threonine-protein kinase BRSK1 (Homo sapiens) (UniProt Q8TDC3); assay: Inhibition of BrSK1(h) at 10.0 µM in the Eurofins Kinase panel; conditions: Compound concentration 10.0 uM
[19] = target: Serine/threonine-protein kinase NIM1 (Homo sapiens) (UniProt Q8IY84); assay: Inhibition of NIM1(h) at 10.0 µM in the Eurofins Kinase panel; conditions: Compound concentration 10.0 uM
[20] = target: T1, Oxytocin receptor (Homo sapiens) (UniProt P30559); assay: Inhibition of Oxytocin at 1 µM in the Eurofins-Panlabs radioligand binding assay (Eurofins_assay_260900); set-up: ligand concentration 0.8 nM, non-specific ligand with concentration 1 µM Oxytocin, incubation time 2 h, incubation temperature 25°C
T1 sequence (whole entry): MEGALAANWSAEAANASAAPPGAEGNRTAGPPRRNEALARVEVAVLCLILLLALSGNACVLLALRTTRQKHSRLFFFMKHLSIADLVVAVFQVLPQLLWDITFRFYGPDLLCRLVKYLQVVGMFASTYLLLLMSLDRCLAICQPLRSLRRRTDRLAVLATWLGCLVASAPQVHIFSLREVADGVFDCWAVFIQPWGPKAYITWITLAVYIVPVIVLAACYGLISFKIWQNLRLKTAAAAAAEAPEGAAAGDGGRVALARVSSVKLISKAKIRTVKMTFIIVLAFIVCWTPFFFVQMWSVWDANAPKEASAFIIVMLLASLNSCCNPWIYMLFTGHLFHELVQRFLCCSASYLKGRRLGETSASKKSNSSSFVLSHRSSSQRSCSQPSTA

[21] = target: Serine/threonine-protein kinase PAK 5 (Homo sapiens) (UniProt Q9P286); assay: Inhibition of PAK5(h) at 10.0 µM in the Eurofins Kinase panel; conditions: Compound concentration 10.0 uM
[22] = target: Leukocyte tyrosine kinase receptor (Homo sapiens) (UniProt P29376); assay: Inhibition of LTK(h) at 10.0 µM in the Eurofins Kinase panel; conditions: Compound concentration 10.0 uM
[23] = target: Cytoplasmic tyrosine-protein kinase BMX (Homo sapiens) (UniProt P51813); assay: Inhibition of Bmx(h) at 10.0 µM in the Eurofins Kinase panel; conditions: Compound concentration 10.0 uM
[24] = target: DNA-dependent protein kinase catalytic subunit (Homo sapiens) (UniProt P78527); assay: Inhibition of DNA-PK(h) at 10.0 µM in the Eurofins Kinase panel; conditions: Compound concentration 10.0 uM
[25] = target: Macrophage-stimulating protein receptor (Homo sapiens) (UniProt Q04912); assay: Inhibition of Ron(h) at 10.0 µM in the Eurofins Kinase panel; conditions: Compound concentration 10.0 uM
[26] = target: Estrogen receptor (Homo sapiens) (UniProt P03372); conditions: Compound concentration 10.0 uM
[27] = target: Serine/threonine-protein kinase MRCK beta (Homo sapiens) (UniProt Q9Y5S2); assay: Inhibition of MRCKbeta(h) at 10.0 µM in the Eurofins Kinase panel; conditions: Compound concentration 10.0 uM
[28] = target: Transcription initiation factor TFIID subunit 1-like (Homo sapiens) (UniProt Q8IZX4); assay: Inhibition of TAF1L(h) at 10.0 µM in the Eurofins Kinase panel; conditions: Compound concentration 10.0 uM
[29] = target: Phosphorylase b kinase gamma catalytic chain, skeletal muscle/heart isoform (Homo sapiens) (UniProt Q16816); assay: Inhibition of PhKgamma1(h) at 10.0 µM in the Eurofins Kinase panel; conditions: Compound concentration 10.0 uM
[30] = target: Sodium-dependent noradrenaline transporter (Homo sapiens, UniProt P23975); conditions: Compound concentration 10.0 uM
[31] = target: Cyclin-G-associated kinase (Homo sapiens) (UniProt O14976); assay: Inhibition of GAK(h) at 10.0 µM in the Eurofins Kinase panel; conditions: Compound concentration 10.0 uM
[32] = target: Rhodopsin kinase GRK7 (Homo sapiens) (UniProt Q8WTQ7); assay: Inhibition of GRK7(h) at 10.0 µM in the Eurofins Kinase panel; conditions: Compound concentration 10.0 uM
[33] = target: Muscarinic acetylcholine receptor M3 (Homo sapiens) (UniProt P20309); conditions: Compound concentration 10.0 uM
[34] = target: Sigma intracellular receptor 2 (Homo sapiens) (UniProt Q5BJF2); conditions: Compound concentration 10.0 uM
[35] = target: Rhodopsin kinase GRK1 (Homo sapiens) (UniProt Q15835); assay: Inhibition of GRK1(h) at 10.0 µM in the Eurofins Kinase panel; conditions: Compound concentration 10.0 uM

Compound	inhibition [1] [%]	inhibition [2] [%]	inhibition [3] [%]	inhibition [4] [%]	inhibition [5] [%]	inhibition [6] [%]	inhibition [7] [%]	inhibition [8] [%]	inhibition [9] [%]	inhibition [10] [%]	inhibition [11] [%]	inhibition [12] [%]	inhibition [13] [%]	inhibition [14] [%]	inhibition [15] [%]	inhibition [16] [%]	inhibition [17] [%]	inhibition [18] [%]	inhibition [19] [%]	inhibition [21] [%]	further results
O=c1n(Cc2cncn2-c2cccc(Cl)c2)nc(-c2ccc(Cl)cc2)n1C[C@H](O)C(F)(F)F	-4.66	-0.67	-5.87	-1	-7.3	6.32	9	5.31	28.5	2.56	-0.13	10.2	9	5.25	-8.58	8.95	-0.32	4.95	3.02	1.49	inhibition ([20]; Compound concentration 10.0 uM): 12%; inhibition [22]: 5.77%; inhibition [23]: -7.7%; inhibition [24]: -5.25%; inhibition [25]: -7.87%; inhibition [26]: 4%; inhibition [27]: -6.31%; inhibition [28]: -2.39%; inhibition [29]: 7.19%; inhibition [30]: 11%; inhibition [31]: 0.33%; inhibition [32]: -3.6%; inhibition [33]: 4%; inhibition [34]: 9.61%; inhibition [35]: -8.45%
C[C@H](O)c1nc(Cn2nc(-c3ccc(Cl)cc3)n(C[C@H](O)C(F)(F)F)c2=O)nn1-c1cccc(Cl)c1 [PECAVAPTAN]	-2.72	1.32	0.32	20	-5.21	5.43	8	-6.51	12	2.7	4.07	-5.29	-1	-1.45	-0.27	10.8	-1.97	-5.39	5.79	-3.61	inhibition ([20]; Compound concentration 0.0001 uM): 3%; inhibition ([20]; Compound concentration 0.001 uM): 6%; inhibition ([20]; Compound concentration 0.01 uM): 41%; inhibition ([20]; Compound concentration 0.1 uM): 84%; inhibition ([20]; Compound concentration 1.0 uM): 95%; inhibition [22]: 4.2%; inhibition [23]: -9.46%; inhibition [24]: -4.2%; inhibition [25]: -9.41%; inhibition [26]: 8%; inhibition [27]: -2.21%; inhibition [28]: 2.81%; inhibition [29]: -1.63%; inhibition [30]: 71.2%; inhibition [31]: 10.4%; inhibition [32]: 0.06%; inhibition [33]: 8%; inhibition [34]: 27.7%; inhibition [35]: 6.58%
